Test results reported in patent US9944600B2, “Piperidine derivatives for GPR119 agonist” (CHONG KUN DANG PHARMACEUTICAL CORP., priority 2012, dated 2018).

What was measured:
[1] = biological target: T1, human GPR119 receptor (Homo sapiens, UniProt Q8TDV5); assay: Activity test for human GPR119 receptor (GeneBLAzer T-Rex GPR 119 CHO-K1 DA cells, fluorescence reporter); format: cell-based; conditions: human GPR119 CHO-K1 reporter cells, 5 hours treatment, ratio to vehicle control well, read-out: % Activation
T1 construct: host or cells: GeneBLAzer T-Rex GPR 119 CHO-K1 DA cells (CHO-K1)
T1 sequence (Q8TDV5 1-335): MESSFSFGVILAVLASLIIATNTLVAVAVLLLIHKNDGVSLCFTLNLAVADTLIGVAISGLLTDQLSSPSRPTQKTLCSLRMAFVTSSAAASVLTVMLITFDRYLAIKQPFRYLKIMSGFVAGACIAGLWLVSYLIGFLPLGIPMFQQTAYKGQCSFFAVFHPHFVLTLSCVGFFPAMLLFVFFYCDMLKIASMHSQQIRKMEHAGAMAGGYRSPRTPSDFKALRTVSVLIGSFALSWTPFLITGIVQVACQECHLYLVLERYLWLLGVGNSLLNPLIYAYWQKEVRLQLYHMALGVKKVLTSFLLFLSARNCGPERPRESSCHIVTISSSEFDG
Experimental: As a human GPR119 receptor expression cell for this test, the cell line “GeneBLAzer™ T-Rex GPR 119 CHO-K1 DA cells” that is commercially available from Invitrogen, was used. The cell was incubated in the DMEM media containing 1% dialyzed fetal bovine serum etc. The cell incubator was kept at constant temperature and constant humidity of 37° C., 5% CO2.
The human GPR119 receptor expressing cell was used to this test. Each of test compounds was added to be final concentrations of 0.1, 1, 10 μM in 96 well and tested in duplicate. A fixed amount of cell was added to each well of 96 well separately, and then treated with the test compound for 5 hours. After treatment of color development agent for 2 hours, the fluorescence value was determined with plate reader. To the luminous wavelength of control well, which was not treated with the agonist sample, but in which only a vehicle (i.e., cell) was contained, the ratio of the luminous wavelength of test well, which was treated with the agonist sample, was calculated, and then converted to obtain % value.
All the results were expressed as mean±SD, and each test groups and the control group were compared using student's t-test to adjudge the effects of each test groups.

[2] = biological target: T2, GPR 119 Receptor (Mus musculus, UniProt Q7TQP3); assay: Glucose tolerance test in normal mouse (animal test of activity for the GPR 119 receptor); format: in vivo; conditions: normal male C57/6J Jms mice, oral glucose 2 g/kg, whole blood glucose AUC
T2 construct: from tissue; host or cells: whole animal: male C57/6J Jms mice (normal) or diet induced obesity C57BL/6J mice
T2 sequence (Q7TQP3 1-335): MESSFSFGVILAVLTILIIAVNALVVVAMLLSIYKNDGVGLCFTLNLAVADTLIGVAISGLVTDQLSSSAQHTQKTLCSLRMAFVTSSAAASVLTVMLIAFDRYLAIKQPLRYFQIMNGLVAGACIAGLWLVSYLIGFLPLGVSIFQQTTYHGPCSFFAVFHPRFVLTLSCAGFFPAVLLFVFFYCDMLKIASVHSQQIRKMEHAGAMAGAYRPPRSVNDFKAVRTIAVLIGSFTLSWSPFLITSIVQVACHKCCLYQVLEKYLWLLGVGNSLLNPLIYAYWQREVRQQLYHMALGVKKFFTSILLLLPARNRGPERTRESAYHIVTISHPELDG
Experimental: Male C57/6J Jms mice of 6-7 weeks of age were fasted for 16 hours before the start of glucose tolerance test. The experimental animal groups consist of: • A. a vehicle group (10% EtOH, 20% HPBCD in saline), • B. a positive control group administered with MBX-2982 (10 mg/kg), and • C. test groups administered with compound 516, 581, 586, 612, 640, 644 or etc. (10 mg/kg).
Before compound administration, that is, at 0 hour, whole blood glucose level was determined using a Glucometer (ACCU-CHEK, Roche). At 30 minutes after compound administration, whole blood glucose level was determined once again, and 20% glucose (2 g/kg/10 mL) was administered orally. Whole blood glucose level was determined at 20, 40, 60, 80, and 120 minutes after 20% glucose administration. Area under the curve (AUC) of whole blood glucose level was obtained using GraphPad Prism 5.0. The effect of glucose tolerance was adjudged with the corrected area under the curve (cAUC), on which the base value of glucose area under the curve was excluded.

[3] = biological target: T2, GPR 119 Receptor; assay: Glucose tolerance test / whole blood glucose level change in disease model animal (DIO mouse); format: in vivo; conditions: daily
Experimental: Male C57BL/6J mice of 6.5 weeks of age were taken with high fat diet (60% kcal, Research Diets) for 12 weeks. The obtained male diet induced obesity (DIO) C57BL/6J mice of 18.5 weeks of age were fasted for 16 hours before the start of glucose tolerance test. The experimental animal groups consist of: • A. a vehicle group (10% EtOH, 20% HPBCD in D.W.), • B. a positive control group administered with Sitagliptin (30 mg/kg), and • C. test groups administered with compound 770 and Compound 1028 (10, 30 mgkg and combination administration with sitagliptin 30 mg/kg).
Each test compounds was administered at the same time of every day for 2 weeks. Before the compound administration, whole blood glucose level was determined using a Glucometer (ACCU-CHEK, Roche). At 30 minutes after compound administration, whole blood glucose level was determined once again, and 20% glucose (2 g/kg/10 mL) was administered orally. Whole blood glucose level was determined at 20, 40, 60, 80, and 120 minutes after 20% glucose administration. Area under the curve (AUC) of whole blood glucose level was obtained using GraphPad Prism 5.0. The effect of glucose tolerance was adjudged with the corrected area under the curve (cAUC), on which the base value of glucose area under the curve was excluded.
Whole blood glucose level was measured at about 1 hour after test compound administration from caudal vein of mice using Glucometer. Whole blood glucose level was determined three times totally, that is, (1) at prior to the start of drug administration, (2) after 1 week from the start of 2-weeks drug administration, and (3) after the termination of 2-weeks drug administration. Each determination was started with 20% glucose administration, and then perfomed at 20, 40, 60, 80, and 120 minutes after 20% glucose administration.

[4] = 30 mpk alone, 0 week (prior to start of administration)

activity at 0.1 µM ([1]; test compound conc. 0.1 μM) [%]	activity at 1 µM ([1]; test compound conc. 1 μM) [%]	activity at 10 µM ([1]; test compound conc. 10 μM) [%]	Structure (SMILES)	Decrease % of AUC at 10 mg/kg [2] [%]	Whole Blood Glucose Level Change (%) by drug administration ([3]; 10 mpk alone, 0 week (prior to start of administration)) [%]	Whole Blood Glucose Level Change (%) by drug administration ([3]; 10 mpk alone, 1 week) [%]	Whole Blood Glucose Level Change (%) by drug administration ([3]; 10 mpk alone, 2 weeks) [%]	Whole Blood Glucose Level Change (%) by drug administration [3, 4] [%]	Whole Blood Glucose Level Change (%) by drug administration ([3]; 30 mpk alone, 1 week) [%]	Whole Blood Glucose Level Change (%) by drug administration ([3]; 30 mpk alone, 2 weeks) [%]
228	280	310	CC(C)(F)CN1CCC(COc2ccc(-c3ccc(C(=O)N4CCC[C@H]4C(N)=O)c(F)c3)nc2)CC1 [Compound 770, (S)-1-(2-fluoro-4-(5-((1-(2-fluoro-2-methylpropyl)piperidin-4-yl)methoxy)pyridine-2-yl)benzoyl)pyrrolidine-2-carboxamide]	47	0	22.9	24.0	0	25.5	26.6
–	–	–	N[C@@H](CC(=O)N1CCn2c(nnc2C(F)(F)F)C1)Cc1cc(F)c(F)cc1F [Sitagliptin, reference compound]	–	–	–	–	0	25.5	31.7
